Measurements from patent publication US9687486B2, “Methods of treating atherosclerosis or myeloproliferative neoplasms by administering a lyn kinase activator” (THE TRUSTEES OF COLUMBIA UNIVERSITY IN THE CITY OF NEW YORK, priority 2012, dated 2017).
Entries after “also recorded” stand apart in the source; their conditions may differ.

Columns and labels:
[1] = tested on: c-MPL(W515L) positive megakaryocyte progenitor cells; type: cell-based, mouse; details: tolimidone 10 μM, 10 days, IL-3 and TPO 1 ng/mL
Method: FIG. 21. BM cells of the recipient transplanted with BM cells expressing c-MPL(W515) were cultured for 10 days in the presence of IL-3 ([…]) and TPO (1 ng/mL) with or without tolimidone (10 μM). Megakaryocyte (Mk) colonies expressing c-MPL (W515) were identified by cell morphology and GFP expression. Identity of MK was also confirmed by staining for acetylcholinesterase activity. Count of Mk colonies (a); Mk count per colony (b); total colony per plate (c); fluorescence microscopy of a single colony (d). *p<0.05 between vehicle and tolimidone treatment.
Long-term, repeated rHDL infusions are less desirable relative to orally bioavailable small molecule compounds in treatment of chronic diseases such as MPNs. […] To assess the possibility that tolimidone limits megakaryopoiesis and thrombocytosis induced by c-MPL(W515), megakaryocyte colony formation assays with BM cells derived from mice with retroviral co-expression of c-MPL(W515L) and GFP in BM cells were used. […] Under the conditions of low TPO (1 ng/ml), the majority of cell colonies were non-megakaryocyte colonies.

Lyn tyrosine kinase = Lyn tyrosine kinase (Homo sapiens, UniProt P07948); details: Saporito et al. 2012; cited from earlier work
Sequence of Lyn tyrosine kinase (P07948 whole entry): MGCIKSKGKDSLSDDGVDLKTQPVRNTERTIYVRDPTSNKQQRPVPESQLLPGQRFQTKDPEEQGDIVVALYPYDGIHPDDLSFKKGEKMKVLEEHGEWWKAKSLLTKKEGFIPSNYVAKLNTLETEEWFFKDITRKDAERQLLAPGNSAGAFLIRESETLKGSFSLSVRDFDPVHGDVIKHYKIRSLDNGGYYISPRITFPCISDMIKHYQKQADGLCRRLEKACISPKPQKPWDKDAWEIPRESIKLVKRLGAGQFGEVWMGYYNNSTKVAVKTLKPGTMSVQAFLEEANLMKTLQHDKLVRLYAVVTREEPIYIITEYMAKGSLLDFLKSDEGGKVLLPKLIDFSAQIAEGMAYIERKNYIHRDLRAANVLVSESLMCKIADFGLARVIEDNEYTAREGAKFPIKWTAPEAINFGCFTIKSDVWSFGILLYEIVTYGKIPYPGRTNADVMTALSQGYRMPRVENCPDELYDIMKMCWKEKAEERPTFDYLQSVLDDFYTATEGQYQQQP

ulcer = details: rats, 10 mg/kg, oral; Lipinski et al. 1980; cited from earlier work
platelets = assay: Platelet count in Abcg4−/− mice with tolimidone; type: in vivo, mouse
MkPs = assay: MkP proliferation by EdU incorporation; type: cell-based, mouse; details: in the presence of TPO
Method: FIG. 3. Shown are results all from WT, Abcg4^-/- or Lyn^-/- MkPs (n=4). (A) Quantification of tyrosine-phosphorylated c-CBL in response to TPO. (B) Tyrosine-phosphorylated c-CBL levels 5 min after TPO treatment and with or without pretreatment with CD (3 mM), CD-chol (3 mM CD) for 30 min or rHDL (20 μg apoA-I/ml) for 2 hours. (C) Tyrosine-phosphorylated c-CBL with or without 5 min TPO treatment or SU6656 pretreatment (10 μg/ml for 2 h). (D) Cell surface c-MPL with or without TPO or SU6656 treatment for 2 h. (E) Tyrosine-phosphorylated c-CBL (5 min in response to TPO). (F) cell surface c-MPL (2 h TPO treatment) with or without pretreatment with CD-chol (3 mM CD) for 30 min. (G) 16 h EdU incorporation in the presence of TPO and with or without CD (3 mM), CD-Chol (3 mM CD) pretreatment for 30 min or rHDL (20 μg/ml) for 16 […]-5 and p-ERK1/2 levels with or without TPO for 10 minutes. TPO was 30 ng/ml for all the assays shown. Error bars are S.E.M. *P<0.05 WT vs Abcg4^-/- TPO and ^P<0.05 for treatment effect. Blood leukocytes and BM HSPCs were stained and analyzed or sorted as described (Murphy, A. J. et al. 2011). Briefly, BM cells from the mouse femurs and tibias were stained with a cocktail of antibodies to lineage committed cells (CD45R, CD19, CD11b, CD3e, TER-119, CD2, CD8, CD4, Ly-6C/G: All FITC, eBioscience), antibodies to Sca1 (Pacific Blue) and ckit (APC Cy7) to identify HSPC populations and LSK (lin-, Sac1+ and ckit+) cells, and antibodies to CD16/CD32 (FcγRII/III), CD34 to separate CMP (lin-, Sca1-, ckit+, CD34int, […] (lin-, Sca1-, ckit+, CD34int, […] (lin-, Sca1-, ckit+, CD34lo, FcγRII/IIIlo). For DNA content analysis (G2M phase), BM cells were fixed, and stained with DAPI (Invitrogen) prior to flow cytometry analysis. To determine in vivo cell proliferation, EdU (Invitrogen) was injected into mice via the tail vein 24 hours prior to being sacrificed. Cells were immunostained as described above in preparation for flow cytometry. Cells were then fixed and permeabilized using 0.01% saponin (w/v; Fluka) and 1% FCS (v/v) in IC fixation buffer (eBiosciences) for 30 minutes. Cells were then washed and stained with Alexa Fluor-conjugated azides using the Click-iT system (Invitrogen). Proliferation was quantified as percentage of EdU^+ cells by flow cytometry.

c-MPL = assay: Cell surface c-MPL levels in MkPs by flow cytometry; type: cell-based, mouse
Method: Detection of c-MPL from in vivo and in vitro experiments was performed as follows. After harvesting BM progenitor cells, RBCs were lysed and the cells were then resuspended in FACS buffer. Cells were then stained with a cocktail of lineage markers to allow negative selection of BM progenitor cells (Sca1, CD127, CD45R, CD19, CD11b, CD3e, TER-119, CD2, CD8, CD4, and Ly-6C/G; all FITC; eBioscience) and progenitor cell markers, ckit, CD16/CD32 (FcγRII/III), CD34, CD41 and c-MPL or isotype control and allowed to stain on ice for 30 mins. Cells were then washed and stained with a fluorescently conjugated secondary anti-rabbit antibody to detect the anti-c-MPL for a further 30 mins on ice. After this the cells were washed, resuspended in FACS buffer and run on the LSRII. MEPs were identified as lin^− ckit^+CD16/CD32^loCD34^loCD41^−, while MkPs were identified as lin^−ckit^+CD16/CD32^loCD34^loCD41^+.

[2] = tested on: BM cells derived from Jak2+/VF/Vavcre mice; assay: Megakaryocyte colony formation assay, BM cells from Jak2+/VF/Vavcre mice; type: cell-based, mouse; details: tolimidone 10 μM, 14 days
Method: FIG. 22. BM cells from Jak^2+/VF/Vav^cre mice were plated and cultured for 14 days in the presence of IL-3 ([…]) and TPO (1 ng/mL) with or without tolimidone (10 μM). Megakaryocyte (Mk) colony was identified by cell morphology. Colony number/plate (a); Mk count/colony (b); and representative Mk colonies (c). Arrows indicate the projected proplatelet like structures from mature megakaryocytes. *p<0.05 between vehicle and tolimidone (10 μM).
In order to assess this possibility, megakaryocyte colony formation assay with BM cells derived from Jak2+/VF/Vavcre mice were performed. […] Moreover, many of the mature megakaryocytes in the vehicle group started to form long-projected cell structures resembling proplatelets.

c-CBL = assay: c-Cbl tyrosine phosphorylation in MkPs in response to TPO, flow cytometry; type: cell-based, mouse
Method: BM progenitor cells were stimulated with TPO at the indicated concentration for the specified period of time at 37° C. and then immediately diluted with ice-cold buffer and placed on ice to prevent further changes in phosphorylation. Cells were then centrifuged and the pellet resuspended in BD fix buffer (BD Biosciences) for 10 mins on ice. The cells were washed with BD flow cytometry staining buffer, centrifuged and then resuspended in BD cytofix/perm buffer III for 20 mins. After this the cells were washed and resuspended in BD staining buffer and incubated with lineage (Sca1, CD127, CD45R, CD19, CD11b, CD3e, TER-119, CD2, CD8, CD4, and Ly-6G; all FITC; eBioscience) and progenitor cell markers, ckit, CD16/CD32 (FcγRII/III), CD34, CD41 and anti-phospho-c-Cbl ([…]/[…]; BD biosciences) or an isotype control for 30 mins on ice. The cells were then washed, resuspended in FACS buffer and run on an LSRII. Phosphorylated c-Cbl was normalized against isotype control staining.

Cc1cccc(Oc2cnc(=O)[nH]c2)c1 [Tolimidone]
GFP-positive megakaryocytes in each colony [1]: significantly reduced
number of GFP-positive megakaryocyte colonies [1]: significantly reduced
total number of colonies [1]: did not significantly affect
Lyn kinase activity (Lyn tyrosine kinase): selectively increases; also recorded: potent and selective
anti-ulcer activity (ulcer): oral-active anti-ulcer activity
platelet count (platelets): reduces
MkP proliferation (MkPs; Abcg4−/− MkPs): decreases
MkP proliferation (MkPs; WT MkPs): decreased
cell surface c-MPL levels (c-MPL; Abcg4−/− MkPs, TPO 30 ng/ml): reverses; also recorded: reduces
cell surface c-MPL levels (c-MPL; Abcg4−/− MkPs, tolimidone 10 μM and TPO for 2 h (FIG. 16)): significantly reduced
effects in Lyn−/− MkPs (c-MPL, c-Cbl phosphorylation, proliferation) (c-MPL; Lyn−/− MkPs, expected): no effects
cell surface c-MPL levels (c-MPL; WT MkPs, TPO 30 ng/ml): decreased
cell surface c-MPL levels (c-MPL; WT and Abcg4−/− MkPs, BM cells of hypercholesterolemic Ldlr−/− mice, Tolimidone 10 μM, 30 ng/ml TPO, 2 hours (FIG. 20)): significantly reduced
proportion of megakaryocytes that generated proplatelets [2]: reduced
number of megakaryocyte colonies ([2]; IL-3 and TPO 1 ng/mL): decreased
number of megakaryocytes in each colony ([2]; IL-3 and TPO 1 ng/mL): decreased
c-CBL tyrosine phosphorylation (c-CBL; Abcg4−/− MkPs): increases
c-CBL tyrosine phosphorylation (c-CBL; WT MkPs): increased
